Test results reported in ChEMBL document CHEMBL1152536, “Molecular modeling of human acidic mammalian chitinase in complex with the natural-product cyclopentapeptide chitinase inhibitor argifin” (Bioorg Med Chem, 2009).

Target: Acidic mammalian chitinase (Homo sapiens, UniProt Q9BZP6)
Assay: Inhibition of human acidic mammalian chitinase

Chain of Acidic mammalian chitinase (Q9BZP6 whole entry): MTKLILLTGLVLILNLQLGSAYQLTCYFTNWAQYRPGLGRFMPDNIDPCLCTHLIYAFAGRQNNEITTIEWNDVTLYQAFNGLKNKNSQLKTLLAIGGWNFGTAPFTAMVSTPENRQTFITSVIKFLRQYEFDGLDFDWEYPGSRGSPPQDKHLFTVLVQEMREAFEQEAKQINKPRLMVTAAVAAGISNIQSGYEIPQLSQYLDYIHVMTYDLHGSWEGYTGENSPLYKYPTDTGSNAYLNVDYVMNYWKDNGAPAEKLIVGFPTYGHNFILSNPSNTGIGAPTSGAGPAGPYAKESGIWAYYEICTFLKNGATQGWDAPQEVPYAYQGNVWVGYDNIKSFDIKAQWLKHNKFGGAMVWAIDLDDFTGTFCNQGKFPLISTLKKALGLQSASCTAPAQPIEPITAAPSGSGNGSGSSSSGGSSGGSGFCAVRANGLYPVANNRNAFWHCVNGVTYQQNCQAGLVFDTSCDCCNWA

- IC50: 4.5 µM
Compound: CNC(=O)NC(=N)NCCC[C@@H]1NC(=O)[C@@H](C)NC(=O)C[C@@H](C(=O)O)NC(=O)C[C@@H](C(=O)O)NC(=O)[C@H](Cc2ccccc2)N(C)C1=O [ARGIFIN]
